Measurements from PubChem BioAssay AID1845200 (Molecular Pharmacology Branch, DTP, NCI, 2023).
Active and inactive are the calls of the source. How the source made its calls: active means viability on the fitted dose curve at most 10% of control; inactive means the rest.

Test system: ASPS-1 complex tumor spheroids, viability
Assay: Anticancer human tumor ASPS-1 cell line growth inhibition;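 further: spheroids exposed to agents for 7 days after 3 days of growth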;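 on viability, T/C: 100% = DMSO vehicle treated spheroids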
Conditions: for IC50: curve of first compound; for viability, T/C: stronger effect = lower value
From the text: Multicellular complex tumor spheroid response to DNA repair inhibitors in combination with DNA-damaging drugs
This study explores the anticancer activities of DNA-damaging drugs and inhibitors of DNA damage repair, both as single agents and in combinations. Complex tumor spheroids comprised of malignant cells, endothelial cells and mesenchymal stem cells served as an in vitro model for human solid tumors. This model system incorporates physiologically relevant features and patient-derived or established malignant cell lines with clinically relevant genetic alterations from many tumor types. Twenty-six patient-derived or established malignant cell lines were evaluated representing sarcoma, melanoma, small cell lung cancer (SCLC), non-small cell lung cancer (NSCLC), as well as bladder, ovarian and pancreatic cancers. The concentration ranges selected for each drug and investigational agent were based upon clinically achievable concentrations if the clinical Cmax of the agent was known.
Compounds. The drugs and compounds olaparib (NSC753686), talazoparib (NSC767125), berzosertib (NSC777718), elimusertib (NSC800525), nedisertib (NSC802822), VX-984 (NSC792969), AZD-1390 (NSC803789), temozolomide (NSC362856), topotecan (NSC609699), trabectedin (NSC813783), staurosporine (NSC755774), and gemcitabine (NSC613327) were obtained from the National Cancer Institute (NCI) Developmental Therapeutics Program Chemical Repository. The FDA-approved anticancer drug set is available from the Developmental Therapeutics Program at https://dtp.cancer.gov/organization/dscb/obtaining/available_plates.htm. […] The stock solutions were prepared in dimethyl sulfoxide (DMSO, Sigma-Aldrich, St. Louis, MO, cat. D2650) at 400-fold the tested concentration and stored at -70 degrees C. Prior to their use, the stock solutions were diluted in fresh medium and the final DMSO concentration in the assay was 0.25% (v/v). All drugs and investigational agents were tested over a range starting from a high concentration at or near the clinical Cmax and decreasing in half-log increments. If the clinical Cmax for an agent had not been determined, the highest concentration tested was 10 microM.
Cell Lines. The patient-derived cancer cell (PDC) lines: 156681-154-R-J1-PDC, 283228-195-R-J1-PDC, 287954-098-R-J1-PDC, 292921-168-R-J2-PDC, 349418-098-R-PDC, 425362-245-T-J1-PDC, 556581-035-R-J1-PDC, and BL0293-F563-PDC were received from the NCI Patient-Derived Models Repository (PDMR, https://pdmr.cancer.gov). The established cell lines HS-SY-2 (RRID:CVCL_8719), MPNST, and SYO-1 (RRID:CVCL_7146) were obtained from the Sloan Kettering Institute. The alveolar soft parts sarcoma cell line ASPS-1 (RRID:CVCL_S738) was established at the NCI and grown from internal seed stocks. The following established cell lines were purchased from the American Type Culture Collection (ATCC, Manassas, VA): G-401 (ATCC, cat. CRL-1441, RRID:CVCL_0270), SW982 (ATCC, cat. HTB-93, RRID:CVCL_1734), VA-ES-BJ (ATCC, cat. CRL-2138, RRID:CVCL_1785), NCI-H719 (ATCC, cat. CRL-5837, RRID:CVCL_1582), NCI-H196 (ATCC, cat. CRL-5823, RRID:CVCL_1509), NCI-H841 (ATCC, cat. CRL-5845, RRID:CVCL_1595), NCI-H1618 (ATCC, cat. CRL-5879, RRID:CVCL_1480), NCI-H1876 (ATCC, cat. CRL-5902, RRID:CVCL_1503), DMS 114 (ATCC, cat. CRL-2066; RRID:CVCL_1174), NCI-H211 (ATCC, cat. CRL-5824; RRID:CVCL_1529), and SW 1271 (ATCC, cat. CRL-2177, RRID:CVCL_1716). The small cell lung cancer cell line COR-L88 was purchased from Sigma-Aldrich (cat. 92031917-1VL, RRID:CVCL_1141). The non-small cell lung cancer cell lines NCI-H226 (RRID:CVCL_1544) and NCI-H322M (RRID:CVCL_1557) were established at the NCI and grown from internal seed stocks. Pooled donor human umbilical vein endothelial cells (HUVEC, Lonza, cat. CC-2519) and human mesenchymal stem cells (hMSC, Lonza, cat. PT-2501) were purchased from Lonza (Walkersville, MD).
Cell Culture. All cells were maintained in an incubator at 37 degrees C and 5% CO2 with 95% humidity. […]

[1] = second compound 0.003 µM, first compound 0.00949 µM
[2] = second compound 0.003 µM, first compound 0.03 µM
[3] = second compound 0.003 µM, first compound 0.0949 µM
[4] = second compound 0.003 µM, first compound 0.3 µM
[5] = second compound 0.003 µM, first compound 0.949 µM
[6] = second compound 0.003 µM, first compound 3 µM
[7] = second compound 0.00949 µM, first compound 0.00949 µM
[8] = second compound 0.00949 µM, first compound 0.03 µM
[9] = second compound 0.00949 µM, first compound 0.0949 µM
[10] = second compound 0.00949 µM, first compound 0.3 µM
[11] = second compound 0.00949 µM, first compound 0.949 µM
[12] = second compound 0.00949 µM, first compound 3 µM
[13] = second compound 0.03 µM, first compound 0.00949 µM
[14] = second compound 0.03 µM, first compound 0.03 µM
[15] = second compound 0.03 µM, first compound 0.0949 µM
[16] = second compound 0.03 µM, first compound 0.3 µM
[17] = second compound 0.03 µM, first compound 0.949 µM
[18] = second compound 0.03 µM, first compound 3 µM
[19] = second compound 0.0949 µM, first compound 0.00949 µM
[20] = second compound 0.0949 µM, first compound 0.03 µM
[21] = second compound 0.0949 µM, first compound 0.0949 µM
[22] = second compound 0.0949 µM, first compound 0.3 µM
[23] = second compound 0.0949 µM, first compound 0.949 µM
[24] = second compound 0.0949 µM, first compound 3 µM
[25] = second compound 0.3 µM, first compound 0.00949 µM
[26] = second compound 0.3 µM, first compound 0.03 µM
[27] = second compound 0.3 µM, first compound 0.0949 µM
[28] = second compound 0.3 µM, first compound 0.3 µM
[29] = second compound 0.3 µM, first compound 0.949 µM
[30] = second compound 0.3 µM, first compound 3 µM

SMILES | IC50 (second compound 0.003 µM) [nM] | IC50 (second compound 0.00949 µM) [nM] | IC50 (second compound 0.03 µM) [nM] | IC50 (second compound 0.0949 µM) [nM] | IC50 (second compound 0.3 µM) [nM] | viability, T/C [1] [%] | viability, T/C [2] [%] | viability, T/C [3] [%] | viability, T/C [4] [%] | viability, T/C [5] [%] | viability, T/C [6] [%] | viability, T/C [7] [%] | viability, T/C [9] [%] | viability, T/C [10] [%] | viability, T/C [11] [%] | viability, T/C [12] [%] | viability, T/C [13] [%] | viability, T/C [14] [%] | viability, T/C [15] [%] | viability, T/C [16] [%] | further results
CNCc1ccc(-c2cc(-c3nc(-c4ccc(S(=O)(=O)C(C)C)cc4)cnc3N)on2)cc1 + CC[C@@]1(O)C(=O)OCc2c1cc1n(c2=O)Cc2cc3c(CN(C)C)c(O)ccc3nc2-1 | 478 | 412 | 256 | 19.6 | < 9.49 | 102 | 103 | 98.8 | 60.8 | 30.8 | 5.94 | 104 | 107 | 54.5 | 30.2 | 5.23 | 97.1 | 105 | 90.5 | 41.9 | viability, T/C [8]: 108%; viability, T/C [17]: 25.3%; viability, T/C [18]: 10.3%; viability, T/C [19]: 54.1%; viability, T/C [20]: 45.6%; viability, T/C [21]: 41.8%; viability, T/C [22]: 29%; viability, T/C [23]: 22.4%; viability, T/C [24]: 2.96%; viability, T/C [25]: 44.9%; viability, T/C [26]: 38.3%; viability, T/C [27]: 26.9%; viability, T/C [28]: 23.4%; viability, T/C [29]: 23.7%; viability, T/C [30]: 7.06%
Cc1sc2c(c1C)C(c1ccc(Cl)cc1)=NC(CC(=O)Nc1ccc(O)cc1)c1nnc(C)n1-2 (stereo not given) + CC[C@@]1(O)C(=O)OCc2c1cc1n(c2=O)Cc2cc3c(CN(C)C)c(O)ccc3nc2-1 | > 3000 | > 3000 | > 3000 | > 3000 | 550 | 105 | 111 | 106 | 107 | 94.4 | 84.2 | 114 | 118 | 109 | 97.8 | 88.5 | 100 | 105 | 102 | 94.4 | outcome [8]: inactive; viability, T/C [17]: 89.6%; viability, T/C [18]: 77.4%; viability, T/C [19]: 64.2%; viability, T/C [20]: 71.7%; viability, T/C [21]: 77.2%; viability, T/C [22]: 71.2%; viability, T/C [23]: 66.9%; viability, T/C [24]: 58.8%; viability, T/C [25]: 52.1%; viability, T/C [26]: 55.2%; viability, T/C [27]: 58.7%; viability, T/C [28]: 55.3%; viability, T/C [29]: 44.5%; viability, T/C [30]: 33.7%
